Assay [1] has as its target T1, Tyrosine-protein phosphatase non-receptor type 7 (Homo sapiens, UniProt P35236).
T1 sequence (P35236 whole entry): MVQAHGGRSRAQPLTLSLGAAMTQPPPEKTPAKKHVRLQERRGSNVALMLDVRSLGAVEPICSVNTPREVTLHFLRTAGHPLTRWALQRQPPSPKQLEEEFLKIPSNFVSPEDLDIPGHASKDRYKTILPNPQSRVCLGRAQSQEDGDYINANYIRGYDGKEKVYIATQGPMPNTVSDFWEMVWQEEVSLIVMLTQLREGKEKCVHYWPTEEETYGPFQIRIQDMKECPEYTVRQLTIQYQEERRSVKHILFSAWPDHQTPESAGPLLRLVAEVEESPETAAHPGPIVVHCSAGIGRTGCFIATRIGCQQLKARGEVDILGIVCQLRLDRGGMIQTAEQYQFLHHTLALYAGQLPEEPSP
The assay is described as follows: inhibitors of human HePTP phosphatase, […], biochemical, absorbance, leukemia target (AID 521). The class given is functional.

A short description of assay [2]: cytotoxicity in HPDE-C7 cells, cell-based, fluorescence, HTS (AID 430). Format: functional. Particulars: Homo sapiens.
Assay [3] is described as follows: cytotoxicity in KRAS-transformed pancreatic duct cells, primary screen, cell-based, fluorescence, HTS (AID 431).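 Further: cell line used: HPDE-C7K.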 Format: functional. Particulars: Homo sapiens.
Assay [4] in a line: growth suppression of PTEN-null colon cells, dose response, cell-based, HCT116 PTEN knockout (AID 1047).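 Further: HCT116 colon tumor cells with PTEN knocked out; cells exposed to compound for 60 hours before readout; potency for loss of cell viability measured by luminescence.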 The class given is functional.
Assay [5] in a line: growth suppression of beta-catenin-knockout colon cells, dose response, cell-based, HCT116, human colon tumor (AID 1045).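 Further: HCT116 colon tumor cells with beta catenin knocked out; cells exposed to compound for 60 hours.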 Format: functional.
A short description of assay [6]: P. falciparum 3D7-ScDHODH growth inhibitors, dose response, SYBR Green, dry powder samples (AID 1159570).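 Further: parasite growth measured after 72 hours of compound exposure.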 Format: functional, cell-based.
The nature of assay [7]: HepG2 cell cytotoxicity, dose response, cytotoxicity control, plate reader, dry powder samples (AID 1159569).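 Further: inhibitor potency with signal falling toward the positive control level.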 The class given is functional, cell-based.
The nature of assay [8]: P. falciparum Dd2 growth inhibitors, dose response, SYBR Green, cherry-picked samples (AID 1159567). Format: functional, cell-based.
Assay [9] can be described thus: P. falciparum Dd2 growth inhibitors, dose response, SYBR Green, dry powder samples (AID 1159566).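 Further: potency for growth inhibition with lower SYBR green DNA signal.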 Format: functional, cell-based.
A short description of assay [10]: P. falciparum ATP4 D1247Y mutant growth inhibitors, dose response, NITD609-resistant line, SYBR Green, dry powder (AID 1159571).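 Further: parasites synchronized at ring stage by sorbitol before testing.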 The class given is functional, cell-based.
A further assay concerns the target T2, Leucine aminopeptidase (Plasmodium falciparum 3D7, UniProt Q8IL11).
T2 sequence (Q8IL11 whole entry): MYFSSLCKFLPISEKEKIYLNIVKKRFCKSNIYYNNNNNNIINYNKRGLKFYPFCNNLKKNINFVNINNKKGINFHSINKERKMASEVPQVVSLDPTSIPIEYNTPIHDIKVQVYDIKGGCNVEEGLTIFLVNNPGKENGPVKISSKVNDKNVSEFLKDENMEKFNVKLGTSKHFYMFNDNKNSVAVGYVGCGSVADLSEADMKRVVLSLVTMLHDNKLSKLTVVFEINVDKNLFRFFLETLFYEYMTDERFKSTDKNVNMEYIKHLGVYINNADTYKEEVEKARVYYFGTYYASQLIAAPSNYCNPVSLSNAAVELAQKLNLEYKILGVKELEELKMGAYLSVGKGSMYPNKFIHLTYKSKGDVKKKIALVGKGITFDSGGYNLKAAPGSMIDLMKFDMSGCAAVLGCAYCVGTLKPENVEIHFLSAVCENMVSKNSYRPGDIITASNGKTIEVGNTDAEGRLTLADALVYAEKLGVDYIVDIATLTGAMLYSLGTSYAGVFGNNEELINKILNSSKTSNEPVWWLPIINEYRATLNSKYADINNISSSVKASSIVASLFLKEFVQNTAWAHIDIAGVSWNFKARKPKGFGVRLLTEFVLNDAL
The assay is described as follows: P. falciparum M17LAP inhibitors, primary screen, biochemical, fluorogenic H-Leu-NHMec substrate, 1536-well (AID 1619). The class given is functional.

For assay [11], the target named is Induced myeloid leukemia cell differentiation protein Mcl-1 (Homo sapiens, UniProt Q07820). The class given is functional.
Chain of Induced myeloid leukemia cell differentiation protein Mcl-1 (Q07820 whole entry): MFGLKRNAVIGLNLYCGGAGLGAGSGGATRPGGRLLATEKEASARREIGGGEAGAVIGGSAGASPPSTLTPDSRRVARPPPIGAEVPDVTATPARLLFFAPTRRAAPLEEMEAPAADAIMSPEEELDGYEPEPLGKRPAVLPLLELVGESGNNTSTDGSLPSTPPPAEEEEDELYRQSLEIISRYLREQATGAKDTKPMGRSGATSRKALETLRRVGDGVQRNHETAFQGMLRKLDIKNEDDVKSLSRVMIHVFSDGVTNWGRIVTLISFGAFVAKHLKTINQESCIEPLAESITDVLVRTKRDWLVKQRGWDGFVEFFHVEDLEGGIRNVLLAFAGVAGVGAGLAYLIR
A further assay addresses Large T antigen (Simian virus 40, UniProt P03070). The class given is functional, Betapolyomavirus macacae.
Assay [12] has as its target T3, Mannose-6-phosphate isomerase (Homo sapiens, UniProt P34949).
T3 sequence (P34949 whole entry): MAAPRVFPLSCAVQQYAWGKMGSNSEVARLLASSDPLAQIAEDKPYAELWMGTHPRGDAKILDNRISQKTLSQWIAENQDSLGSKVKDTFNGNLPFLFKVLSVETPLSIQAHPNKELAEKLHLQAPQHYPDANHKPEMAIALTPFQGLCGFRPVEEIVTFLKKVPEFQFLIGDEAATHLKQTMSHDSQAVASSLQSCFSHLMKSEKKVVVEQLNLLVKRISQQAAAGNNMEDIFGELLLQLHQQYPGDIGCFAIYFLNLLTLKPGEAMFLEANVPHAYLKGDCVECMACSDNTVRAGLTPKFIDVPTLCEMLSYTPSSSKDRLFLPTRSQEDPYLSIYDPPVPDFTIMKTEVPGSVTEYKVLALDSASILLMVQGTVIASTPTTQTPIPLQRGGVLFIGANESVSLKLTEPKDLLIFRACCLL
The assay is described as follows: inhibitors of human PMI, primary screen, biochemical, fluorescence intensity, coupled assay (AID 1209).

Assay [13] concerns the target T3, Mannose-6-phosphate isomerase. As to the kind of experiment: human PMI inhibitors, high substrate, primary screen, biochemical, fluorescence intensity, high mannose 6-phosphate (AID 1220).
Assay [14] has as its target T4, Polyadenylate-binding protein 1 (Homo sapiens, UniProt P11940). As to the kind of experiment: PABP1 MLLE–PAM2 interaction inhibitors, dose response, miRNA deadenylation inhibitor project, biochemical, fluorescence polarization, Cy5-PAM2 peptide, secondary (AID 602260). Format: functional. Conditions: read-out: IC50_Mean.
Assay [15] addresses T4, Polyadenylate-binding protein 1. The assay is described as follows: PABP1 MLLE–PAM2 binding inhibitor potency, dose response, biochemical, fluorescence polarization, FITC-PAM2 peptide (AID 602259). Conditions: read-out: IC50_Mean. The class given is functional.
Assay [16] has as its target T5, Rac GTPase-activating protein 1 (Homo sapiens, UniProt Q9H0H5).
T5 sequence (Q9H0H5 whole entry): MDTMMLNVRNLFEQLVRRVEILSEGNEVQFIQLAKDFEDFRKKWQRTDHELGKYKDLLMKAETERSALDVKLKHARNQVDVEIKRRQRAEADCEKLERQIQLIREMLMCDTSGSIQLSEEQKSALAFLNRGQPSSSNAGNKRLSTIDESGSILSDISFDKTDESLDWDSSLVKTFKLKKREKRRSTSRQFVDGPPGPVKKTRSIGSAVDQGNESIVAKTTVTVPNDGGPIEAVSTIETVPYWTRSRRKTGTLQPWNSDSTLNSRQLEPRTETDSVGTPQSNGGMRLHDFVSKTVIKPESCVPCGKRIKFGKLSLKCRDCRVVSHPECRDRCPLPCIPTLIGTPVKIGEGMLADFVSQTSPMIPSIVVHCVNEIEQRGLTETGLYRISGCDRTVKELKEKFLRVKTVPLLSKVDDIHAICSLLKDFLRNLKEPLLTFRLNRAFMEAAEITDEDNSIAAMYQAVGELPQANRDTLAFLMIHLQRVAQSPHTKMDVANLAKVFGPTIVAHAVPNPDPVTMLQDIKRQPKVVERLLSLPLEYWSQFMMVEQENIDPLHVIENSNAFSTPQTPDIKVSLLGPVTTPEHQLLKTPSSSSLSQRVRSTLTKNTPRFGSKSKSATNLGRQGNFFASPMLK
As to the kind of experiment: MgcRacGAP GTPase-activating activity inhibitors, confirmation, biochemical, ADP Hunter fluorescence, primary and confirmatory (AID 624330). Format: functional.

The target in assay [17] is T6, Calpain-2 catalytic subunit (Sus scrofa, UniProt P43367).
T6 sequence (P43367 whole entry): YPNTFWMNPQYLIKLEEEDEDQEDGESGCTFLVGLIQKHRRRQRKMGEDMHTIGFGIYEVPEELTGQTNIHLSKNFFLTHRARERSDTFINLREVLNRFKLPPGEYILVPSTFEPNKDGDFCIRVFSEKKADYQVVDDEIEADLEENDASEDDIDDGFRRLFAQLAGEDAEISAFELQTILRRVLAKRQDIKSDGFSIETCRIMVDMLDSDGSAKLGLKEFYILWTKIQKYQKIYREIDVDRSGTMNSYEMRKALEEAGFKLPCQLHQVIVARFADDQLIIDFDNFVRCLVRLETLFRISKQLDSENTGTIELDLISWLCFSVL
The assay is described as follows: pig calpain II inhibitor potency, dose response, biochemical, fluorogenic peptide substrate (AID 1420). The class given is functional.

For the next assay, the target named is T7, Aminopeptidase N (Plasmodium falciparum FcB1/Columbia, UniProt O96935).
T7 sequence (O96935 whole entry): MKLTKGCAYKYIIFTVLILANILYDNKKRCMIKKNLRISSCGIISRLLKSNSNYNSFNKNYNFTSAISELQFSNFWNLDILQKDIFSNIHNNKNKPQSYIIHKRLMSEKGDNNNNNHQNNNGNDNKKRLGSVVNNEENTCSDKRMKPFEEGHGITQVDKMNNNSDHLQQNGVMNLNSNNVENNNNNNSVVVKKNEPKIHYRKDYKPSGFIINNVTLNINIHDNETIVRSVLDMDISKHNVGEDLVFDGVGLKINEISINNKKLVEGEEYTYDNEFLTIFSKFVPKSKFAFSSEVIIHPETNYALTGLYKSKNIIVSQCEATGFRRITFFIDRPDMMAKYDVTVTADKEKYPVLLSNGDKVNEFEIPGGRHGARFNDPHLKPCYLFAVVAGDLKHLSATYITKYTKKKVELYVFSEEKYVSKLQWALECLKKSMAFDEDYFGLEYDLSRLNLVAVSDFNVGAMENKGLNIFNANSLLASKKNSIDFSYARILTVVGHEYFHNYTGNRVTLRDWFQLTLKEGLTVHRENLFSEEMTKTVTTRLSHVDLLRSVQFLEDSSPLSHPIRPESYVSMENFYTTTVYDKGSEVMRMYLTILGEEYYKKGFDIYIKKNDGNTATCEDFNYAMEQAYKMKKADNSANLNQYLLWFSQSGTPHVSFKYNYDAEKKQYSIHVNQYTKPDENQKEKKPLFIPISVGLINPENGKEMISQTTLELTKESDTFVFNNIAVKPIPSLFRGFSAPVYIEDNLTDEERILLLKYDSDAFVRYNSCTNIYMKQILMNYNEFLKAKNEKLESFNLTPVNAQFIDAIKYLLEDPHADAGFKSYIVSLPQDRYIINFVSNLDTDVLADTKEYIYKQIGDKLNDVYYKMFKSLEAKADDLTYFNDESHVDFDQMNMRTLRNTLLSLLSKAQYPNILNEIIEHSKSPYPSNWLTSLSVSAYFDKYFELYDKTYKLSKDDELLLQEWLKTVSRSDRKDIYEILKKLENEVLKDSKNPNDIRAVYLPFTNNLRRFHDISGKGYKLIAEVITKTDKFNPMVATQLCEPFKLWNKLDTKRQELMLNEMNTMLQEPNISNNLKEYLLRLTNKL
As to the kind of experiment: P. falciparum M1AAP inhibitors, biochemical, fluorogenic H-Leu-NHMec substrate, 1536-well (AID 1445). On the set-up: species or system Plasmodium falciparum 3D7, 3D7.

Each structure is given as a SMILES string. Active and inactive are the calls of the source.

T4 sequence (P11940 whole entry): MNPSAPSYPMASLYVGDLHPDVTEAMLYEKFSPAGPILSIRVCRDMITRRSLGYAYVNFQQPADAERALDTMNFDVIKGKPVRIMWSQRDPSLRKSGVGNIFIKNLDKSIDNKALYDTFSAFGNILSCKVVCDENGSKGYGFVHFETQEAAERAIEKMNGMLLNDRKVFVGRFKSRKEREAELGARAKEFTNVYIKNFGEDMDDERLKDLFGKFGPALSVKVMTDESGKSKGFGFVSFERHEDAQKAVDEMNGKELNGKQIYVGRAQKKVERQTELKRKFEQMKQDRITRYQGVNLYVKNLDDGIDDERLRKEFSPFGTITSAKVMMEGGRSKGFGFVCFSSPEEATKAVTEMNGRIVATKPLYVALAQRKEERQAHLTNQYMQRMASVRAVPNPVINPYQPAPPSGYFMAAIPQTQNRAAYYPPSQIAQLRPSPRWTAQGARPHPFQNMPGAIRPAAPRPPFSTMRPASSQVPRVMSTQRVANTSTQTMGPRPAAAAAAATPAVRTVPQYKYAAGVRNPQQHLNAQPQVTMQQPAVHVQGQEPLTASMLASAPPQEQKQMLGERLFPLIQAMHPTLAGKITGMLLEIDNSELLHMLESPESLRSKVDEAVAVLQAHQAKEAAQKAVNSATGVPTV
Chain of Large T antigen (P03070 whole entry): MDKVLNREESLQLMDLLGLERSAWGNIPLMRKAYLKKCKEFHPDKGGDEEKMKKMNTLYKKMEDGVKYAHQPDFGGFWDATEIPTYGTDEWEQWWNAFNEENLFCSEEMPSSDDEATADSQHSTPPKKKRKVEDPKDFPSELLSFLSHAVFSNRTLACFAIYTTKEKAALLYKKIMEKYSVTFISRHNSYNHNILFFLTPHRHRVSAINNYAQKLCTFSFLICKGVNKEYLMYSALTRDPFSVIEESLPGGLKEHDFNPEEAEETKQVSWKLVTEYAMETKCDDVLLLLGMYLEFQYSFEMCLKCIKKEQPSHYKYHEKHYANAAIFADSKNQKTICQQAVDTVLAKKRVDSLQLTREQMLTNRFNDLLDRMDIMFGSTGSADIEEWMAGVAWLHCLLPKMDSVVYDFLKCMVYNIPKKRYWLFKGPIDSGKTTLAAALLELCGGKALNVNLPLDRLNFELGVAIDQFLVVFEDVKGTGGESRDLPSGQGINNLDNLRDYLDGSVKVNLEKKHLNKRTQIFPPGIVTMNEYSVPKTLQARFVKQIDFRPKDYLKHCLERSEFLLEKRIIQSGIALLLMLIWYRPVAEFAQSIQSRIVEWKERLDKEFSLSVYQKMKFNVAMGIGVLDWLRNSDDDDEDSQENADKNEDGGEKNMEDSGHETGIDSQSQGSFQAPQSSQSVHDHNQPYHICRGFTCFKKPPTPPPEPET

For `Cc1cc(-c2nnc3n2N=C(c2ccc(-c4ccccc4)cc2)CS3)[nH]n1`, in assay [1], the IC50 was > 100 µM (not active). For the same compound, the EC50 in assay [2] is 15.2 µM (active); in assay [3], 16.1 µM (active); in assay [4], 15.9 µM (active); in [5], 13.7 µM (active).

As to `C[C@@H]1CN([C@H](C)CO)C(=O)c2cc(C#Cc3cccc(F)c3)cnc2O[C@@H]1CN(C)C(=O)C1CCCCC1`, the AC50 in [6] was 3.19 µM (active); in assay [7] it was 30.1 µM (active); in assay [8], 2.91 µM (active); in [9], 2.16 µM (active); in assay [10], 2.66 µM (active).

With `O=C(O)C1CC=CCC1C(=O)Nc1ccc(F)c(F)c1` (centres undefined), the IC50 at Leucine aminopeptidase was 20.4 µM (active); in [1] it was > 100 µM (not active).

Regarding `C[C@H]1CN([C@@H](C)CO)C(=O)c2ccccc2-c2ccccc2CO[C@@H]1CN(C)C(=O)Nc1ccc(-c2ccccc2)cc1`, the AC50 is 1.35 µM (active) in [6]; > 100 µM (inactive) in assay [7]; 1.77 µM (active) in assay [8]; 0.723 µM (active) in assay [9]; 1.56 µM (active) in [10].

`COc1ccccc1/C=C1/SC(=O)N(CCC(=O)Nc2ccc(S(=O)(=O)Nc3nccs3)cc2)C1=O`: in assay [11], the IC50 was 2.69 µM (active).

Turning to `Oc1ccc(/C=N/Nc2ccnc3cc(Cl)ccc23)c(O)c1`, the IC50 in [11] is 6.73 µM (active).

Regarding `Nc1nnc(S)n1N=C1C(=O)Nc2ccccc21`, the IC50 on Large T antigen is 7.65 µM (active); in assay [12], 30 µM (active); in [13] it was 4.84 µM (active); in [14], > 66 µM (inactive); in [15], > 66 µM (inactive); in assay [16], 57.4 µM (active).

Take `CC(C)c1ccc(NC(S)=NC2CC3C=CC2C3)cc1` (centres undefined): the IC50 in assay [17] is 42.5 µM (not active).

Take `O=C(CN1C(=O)C2C3c4ccccc4C(c4ccccc43)C2C1=O)N1CCOCC1` (centres undefined): in assay [1], the IC50 is > 100 µM (not active).

Regarding `COC(=O)c1ccccc1NC(=O)N1CCN(c2ccc(F)cc2)CC1`, the IC50 in [17] is on record as 8.67 µM (not active).

As to `O=C(Nc1ccccn1)c1cccc(S(=O)(=O)N2CCCCC2)c1`, the IC50 in assay [1] is given as > 100 µM (not active).

Regarding `CCCOc1ccc(Cc2nn3c(=O)/c(=C/c4ccco4)sc3nc2=O)cc1`, in [11], the IC50 is 8.96 µM (not active).

Take `O=C(Nc1ccc(Cl)c(Cl)c1)OCCNC(=O)c1cccc(Cl)c1`: the IC50 in [17] is listed as 2.99 µM (not active).

Turning to `CC(=O)NNC(=O)c1sc(=S)n2c1[nH]c(=O)c1sccc12`, the values for the IC50 (on Aminopeptidase N; in assay [12]; in [13]) were 11.6 µM (active), > 50 µM (not active) and > 50 µM (not active), respectively.

(Values after ChEMBL document CHEMBL1201862, “PubChem BioAssay data set” (2004).)
